What was measured:
NSCs = test: Neurosphere self-renewal assay of the NSCs; format: cell-based, mice; conditions: 0.1, 1, 10 μM for 16 hours vs control group, especially 1 μM
Experimental: To determine whether the HIF-1α-Bmi-1 pathway regulates the proliferation of the NSCs a neurosphere self-renewal assay is performed in this example. In the neurosphere self-renewal assay, the NSCs are cultured in non-adherent cultures to form neurospheres for examining the effect of the HIF-1α-Bmi-1 pathway on the self-renewal of the neurosphere.
To prepare the NSCs, after removal of meninges, subventricular zones (SVZ) of lateral ventricles from adult mice brain (4 week-of-age) are aseptically isolated and dissociated as previously described (J Cell Sci 2006; 119, 4467-4474). All steps are operated under sterile conditions. Then, neurosphere culture are prepared in neurobasal (NB) medium (Gibco BRL) supplemented with 2% of B27 (Gibco BRL), 2 mM of L-glutamine (PAN Biotech), 100 U/ml of penicillin/0.1 mg/L of streptomycin (Gibco BRL). For maintenance and expansion of the cultures, the NB/B27 is further supplemented with 2 μg/mL of heparin (Sigma), 20 ng/mL of FGF-2 (R&D Systems) and 20 ng/mL of EGF (R&D Systems). Neurosphere cultures are maintained at 37° C. in a humidified incubator with 5% CO2. For clonal/low density cultures, primary neurospheres grown at high density are dissociated into a single cell suspension and reseeded into 96-well plates at 100 cells per ml of media and the number of newly formed neurospheres is counted after 7 days. In addition, the Bmi-1 expressions, SOX2 expressions, Nestin expressions, Musashi-1 expressions, BrdU expressions and ki-67 expressions of the newly formed neurospheres are determined by the immunofluorescence staining.
In another example, the NSCs are treated with different dosages of the Compound 1 (0.1 μM, 1 μM and 10 μM) for 16 hours, wherein the NSCs treated with 1 μM of the Compound 1 are further transduced with the LV-Bmi-1-sh or LV-HIF-1α-sh respectively. Then the NSCs are cultured in the neurosphere culture to observe the frequency of the neurosphere formation, the self-renewal potential of the NSCs and the neurosphere size. […]

HIF-1α = HIF-1α expressions in the brains of the ischemic rats, Western blot; format: in vivo, Sprague-Dawley (SD) rats
Source text: (§1) The ischemic rats are induced by an ischemia-reperfusion model to simulate transient focal cerebral ischemia in rats. Test animals are male Sprague-Dawley (SD) rats weighing 250-300 g. The rats are anesthetized with chloral hydrate (0.4 g/kg IP) and subjected to cerebral ischemia. The ischemia-reperfusion model is induced by ligations of bilateral common carotid arteries (CCAs) and a right middle cerebral artery (MCA). The bilateral CCAs are clamped with non-traumatic arterial clips, and the right MCA is ligated with an 10-0 nylon suture. After 90 minutes ischemia, the suture on the MCA and the arterial clips on CCAs are removed to allow reperfusion. Core body temperature is monitored with a thermistor probe (Hewlett-Packard Model 21090A probe, Hewlett-Packard Company, Andover, Mass.), and maintained at 37° C. with a heating pad during anesthesia. After recovery from anesthesia, rat body temperature is maintained at 37° C. with a heat lamp.
The ischemia-reperfusion model is established as described above. The ischemic rats are injected intraperitonealy with different dosages of the Compound 1 (0.1 mg/kg, 1 mg/kg and 10 mg/kg) at 4 hours after MCA ligation for three consecutive days. Sham rats undergo same protocol with the exception of the ligation of the bilateral CCAs and the right MCA. The rats only injected a vehicle are used as the control. The ischemic rats are decapitated at 4 hours, 16 hours, 24 hours, 36 hours and 72 hours after the Compound 1 injection. The Bmi-1 expressions and the HIF-1α expressions of the ischemic rats are detected by the Western blot analysis.
The ischemic rats are further treated with 100 mg/kg of the 2-ME2 or stereotaxic injected with the LV-Bmi-1-sh or the LV-control-sh to inhibit the HIF-1α expressions and the Bmi-1 expressions, and then the ischemic rats are treated with 1 mg/kg of the Compound 1. The effect of the administration of the Compound 1 on the Bmi-1 expressions in the brains of the ischemic rats which are reduced the Bmi-1 expressions or the HIF-1α expressions are detected by the Western blot analysis.

ischemic rats = test: Grip strength test; format: in vivo, Sprague-Dawley (SD) rats; conditions: 1 mg/kg, vs control group, FIG. 20
Source text: as §1, with “After recovery from anesthesia, rat body temperature is maintained at 37° C. with a heat lamp.” left out
The grip strength is analyzed using Grip Strength Meter (TSE-Systems). In brief, the grip strength of each forelimb of the ischemic rat is measured separately from the mean of 20 pulls, and the ratio of ipsilateral grip strength to contralateral grip strength is calculated. In addition, the ratio of grip strength post-cell-treatment and pre-cell-treatment is also calculated, and the changes are presented as a percentage of the pre-cell-treatment value.

Bmi-1 = Bmi-1 expressions of the brains of 2-ME2 treated ischemic rats, immunohistochemistry and Western blot; format: in vivo, Sprague-Dawley (SD) rats; conditions: 2-ME2 50, 100 or 150 mg/kg intraperitoneal, dose-dependent manner, FIGS. 5B, 5C
Source text: as §1
2-ME2 (Sigma Aldrich, USA) is dissolved in DMSO to obtain a 10 mmol/L solution. For in vivo experiments, the whole procedure is performed as previously described (Clin Cancer Res 2004, 10: 8665-8673). […]

| SMILES | frequency of the neurosphere formation (NSCs; FIG. 11F) | self-renewal potential of the NSCs (NSCs; FIG. 11G) | neurosphere size (NSCs; FIG. 11H) | treatment time with the highest HIF-1α expression (HIF-1α; 1 mg/kg, 4 to 72 hours after injection, FIG. 13A) [h] | HIF-1α expressions in the brains of the ischemic rats (HIF-1α; 0.1, 1, 10 mg/kg intraperitoneal, vs control and sham rats, FIGS. 13A, 13B) | dosage with the highest HIF-1α expression (HIF-1α; 0.1, 1, 10 mg/kg tested, 36 hours, FIG. 13B) [mg/kg] | grip strength ratio (ischemic rats) | upregulated Bmi-1 immunoreactivity and protein expressions after the cerebral ischemia (Bmi-1) |
| --- | --- | --- | --- | --- | --- | --- | --- | --- |
| COC(=O)C1=CO[C@@H](O)[C@@H]2C(COC(=O)[C@@H](N)Cc3ccccc3)=CC[C@H]12 [Compound 1] | significantly higher frequency of the neurosphere formation | more self-renewal potential | larger neurosphere size | 4 | significantly increases | 1 | much better | – |
| COc1cc2c(cc1O)CC[C@@H]1[C@@H]2CC[C@]2(C)[C@@H](O)CC[C@@H]12 [Compound 2-ME2, 2-Methoxyestradiol, reference compound] | – | – | – | – | – | – | – | suppressed |
